# Test results from US20240132498A1, “CRYSTALLINE FORMS OF 5-(3,4-DIFLUOROBENZYL)-8-((1R,4R)-4-METHYLCYCLOHEXYL)-6,9-DIOXO-2,5,8-TRIAZASPIRO[3.5]NONANE-2-CARBALDEHYDE” (Cytokinetics, Incorporated, priority 2022, published 2024).
# What was measured:
# Assay type in all cases: physicochemical
# [1] = Polymorph screening with liquid assisted grinding (LAG), XRPD outcome
# Method: 30 mg of amorphous 5-(3,4-difluorobenzyl)-8-((1r,4r)-4-methylcyclohexyl)-6,9-dioxo-2,5,8-triazaspirol[3.5]nonane-2-carbaldehyde was wetted with solvent (5 μL). Two grinding beads (3 mm diameter) were added and the samples were ground for 2 hours at 500 rpm using a planetary Fritsch Mill (Pulverisette 6). After grinding all solids were analysed by XRPD.
# Gums were stored at ambient conditions. Gums and samples containing brittle material were dried in-vacuo at R. T. in a vacuum oven overnight (ca. 200 mbar). Observations were recorded and the samples were further dried in-vacuo at R. T. in a vacuum oven overnight (ca. 5 mbar). Where gums still persisted, the samples were further dried in-vacuo at R. T. in a vacuum oven (ca. 5 mbar) for 3 days. The observations and XRPD analysis are provided in Table 5-G. Further treatment details of gums and brittle materials are summarized in Table 5-H.
# [2] = Short-term static storage stability of the solid (XRPD, HPLC)
# Method: Purity analysis was performed on an Agilent HP1100/Infinity 111260 series system equipped with a diode array detector and using OpenLAB software. The full method details are provided below.
# For short-term (8 days or fewer) stability experiments, solid material was placed into open vials at elevated storage conditions, unless otherwise stated. These conditions were achieved using saturated salt solutions at specific temperatures within sealed containers. Storage containers were pre-equilibrated prior to input of samples.
# [3] = Competitive slurry experiments between Form I and Form II; settings: competitive slurry
# Excerpt: The results of the competitive slurry experiments are provided below in Table 6.
# [4] = Storage at 40° C./75% RH for 7 days
structure (smiles),measurement,setting,value
C[C@H]1CC[C@H](N2CC(=O)N(Cc3ccc(F)c(F)c3)C3(CN(C=O)C3)C2=O)CC1,XRPD,"[1]; LAG gum/brittle material after drying in-vacuo, solvent EtOH/water 97:3 v/v",Form II
same,XRPD,"[1]; LAG of amorphous material, solvent 1,4-dioxane/water 99:1 v/v",Form II
same,XRPD,"[1]; LAG of amorphous material, solvent 1-PrOH/water 98:2 v/v",Form I
same,XRPD,"[1]; LAG of amorphous material, solvent 15% v/v water in 1-PrOH",Form II
same,XRPD,"[1]; LAG of amorphous material, solvent 15% v/v water in 2-PrOH",Form II
same,XRPD,"[1]; LAG of amorphous material, solvent 15% v/v water in DMSO",Form I
same,XRPD,"[1]; LAG of amorphous material, solvent 15% v/v water in EtOH",Form II
same,XRPD,"[1]; LAG of amorphous material, solvent 15% v/v water in MeOH",Form II
same,XRPD,"[1]; LAG of amorphous material, solvent 15% v/v water in acetone",Form I
same,XRPD,"[1]; LAG of amorphous material, solvent 50% v/v water in 1-PrOH",Form II
same,XRPD,"[1]; LAG of amorphous material, solvent 50% v/v water in DMSO",Form I
same,XRPD,"[1]; LAG of amorphous material, solvent 50% v/v water in EtOH",Form I
same,XRPD,"[1]; LAG of amorphous material, solvent 50% v/v water in acetone",Amorphous
same,XRPD,"[1]; LAG of amorphous material, solvent 80% v/v water in 2-BuOH",Form I
same,XRPD,"[1]; LAG of amorphous material, solvent 85% v/v water in 2-PrOH",Form I
same,XRPD,"[1]; LAG of amorphous material, solvent 85% v/v water in acetone",Amorphous
same,XRPD,"[1]; LAG of amorphous material, solvent 95% v/v water in 2-BuOH",Form I
same,XRPD,"[1]; LAG of amorphous material, solvent Acetone/water 99:1 v/v",Form II
same,XRPD,"[1]; LAG of amorphous material, solvent Acetonitrile/water 1:1 v/v",Form II
same,XRPD,"[1]; LAG of amorphous material, solvent MeOH/water 97:3 v/v",Form II
"C[C@H]1CC[C@H](N2CC(=O)N(Cc3ccc(F)c(F)c3)C3(CN(C=O)C3)C2=O)CC1 [Form I, 5-(3,4-difluorobenzyl)-8-((1r,4r)-4-methylcyclohexyl)-6,9-dioxo-2,5,8-triazaspiro[3.5]nonane-2-carbaldehyde]",HPLC purity,[2]; Before Storage,96.3%
same,XRPD,[2]; Before Storage,Form I
same,XRPD,[2]; Storage at 25° C./97% RH for 7 days,Unchanged by XRPD
same,XRPD,[2]; [4],Unchanged by XRPD
"C1COCCO1.C[C@H]1CC[C@H](N2CC(=O)N(Cc3ccc(F)c(F)c3)C3(CN(C=O)C3)C2=O)CC1 [Form III, 5-(3,4-difluorobenzyl)-8-((1r,4r)-4-methylcyclohexyl)-6,9-dioxo-2,5,8-triazaspiro[3.5]nonane-2-carbaldehyde 1,4-dioxane solvate]",XRPD,[2]; [4],converted to crystalline Form II
C[C@H]1CC[C@H](N2CC(=O)N(Cc3ccc(F)c(F)c3)C3(CN(C=O)C3)C2=O)CC1 [Forms I and II],XRPD,"[3]; EtOAc, 5 °C",Form II
same,XRPD,"[3]; EtOAc/cyclohexane (50:50 v/v), 5 °C",Form II
same,XRPD,"[3]; EtOAc/cyclohexane (50:50 v/v), 50 °C",Form II
same,XRPD,"[3]; EtOAc/cyclohexane (85:15 v/v), 5 °C",Form II
same,XRPD,"[3]; EtOAc/cyclohexane (85:15 v/v), 50 °C",Form II
same,XRPD,"[3]; EtOH, 5 °C",Form II
same,XRPD,"[3]; EtOH, 50 °C",Form II
same,XRPD,"[3]; EtOH/water (15/85 v/v), 50 °C",Form II
same,XRPD,"[3]; EtOH/water (85:15 v/v), 50 °C",Form II
same,XRPD,"[3]; MIBK, 5 °C",Form II
same,XRPD,"[3]; MIBK, 50 °C",Form II
same,XRPD,"[3]; Toluene, 50 °C",Form II
same,XRPD,"[3]; acetonitrile, 5 °C",Form II
same,XRPD,"[3]; acetonitrile, 50 °C",Form II
